Assay results published in patent US10561670B2, “Compositions comprising acidic extracts of mastic gum” (REGENERA PHARMA LTD., priority 2010, dated 2020).

Tested on: rat MCAO model
Assay: Rat MCAO stroke model, adhesive removal test
Format: in vivo
Conditions: for Time to remove the adhesive tape from the contralateral paw: day 27, subcutaneous 25 microliters twice a week, each compound 0.65% (w/w) in cottonseed oil, versus vehicle and base line (FIG. 14A)
Excerpt: For the experiments described herein, the animals are anesthetized using ketamine/xylazine solution. The animal's neck is then shaved and a midline incision is made in the skin of the neck, and the tissue underneath is bluntly dissected. The right common carotid artery (CCA) and its junction with the external carotid artery (ECA) and internal carotid artery (ICA) are exposed by blunt dissection. The CCA is then transiently closed by positioning around it a 3-0 silk suture material. The ECA is permanently occluded with the same type of suture material. A third closure, transient, is also done in the ICA with 3-0 silk suture material.
A small hole is cut in the ECA and the nylon thread is inserted into the ICA while avoiding entrance into the pterygopalatine artery. The thread is inserted 21-25 mm until a slight resistance is felt. Then a 3-0 silk suture knot secures the thread.
Following surgery, the rats are returned to their cages and remain under a heating lamp until they awake.
Two parameters are monitored and recorded during the ischemic surgery procedure: animal's core temperature and blood glucose level (BGL).
Core temperature is monitored using rectal probe (YSI USA model 400) connected to a measuring unit (Cole Parmer model 8402-00) during the entire surgery period. Ischemic insult is started when rectal temperature is 37-38° C.
The rats of the different groups were injected twice a week subcutaneous with 25 microliters of designated test item. First injection was given three hours after stroke induction.
• Vehicle: cottonseed oil • IMDA: 0.65% (w/w) in cottonseed oil • MDA: 0.65% (w/w) in cottonseed oil • IMDA and MDA: each 0.65% (w/w) in cottonseed oil • IMDA, MDA and OA: each 0.65% (w/w) in cottonseed oil MDA alone; IMDA alone; a combination of MDA+IMDA; and a combination of OA+MDA+IMDA, were tested using a rat MCAO model, for their therapeutic capacity. Stroke induced rats were treated with each of the tested compounds and the improvement of their sensorimotor abilities were tested using the adhesive removal test. […] The time to remove the tape is recorded. […]

SMILES: CC(=CCCC(C)C1CCC2(C)C3=C(CCC12C)C1(C)CCC(=O)C(C)(C)C1CC3)C(=O)O (stereo not drawn) [IMDA, Isomasticadienoic acid]
- Time to remove the adhesive tape from the contralateral paw: able to improve the score of treated rats
- Baseline fold change, removal of adhesive tape from the contralateral paw (day 27 relative to base line score (FIG. 14B)): 10 fold

SMILES: C/C(=C\CC[C@H](C)[C@@H]1CC[C@]2(C)C3=CC[C@H]4C(C)(C)C(=O)CC[C@]4(C)[C@H]3CC[C@@]12C)C(=O)O [MDA, Masticadienoic acid]
- Time to remove the adhesive tape from the contralateral paw: only slightly better than the vehicle control
